Data reported in PubChem BioAssay (NCI).
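Five concentrations, 48 hours, 96-well plates. GI50: concentration for 50% inhibition of growth. TGI marks complete inhibition of growth.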

Assays:
Assay in all cases: NCI tumour cell line growth inhibition, 48 h
[1] = system: 786-0 renal
[2] = system: HCT-116 colon
[3] = system: HCT-15 colon
[4] = system: HT29 colon
[5] = system: KM12 colon
[6] = system: NCI-H23 lung
[7] = system: NCI-H460 lung
[8] = system: RPMI-8226 leukemia
[9] = system: SNB-75 CNS
[10] = system: BT-549 breast

Structure (SMILES) | TGI [1] | TGI [2] | TGI [3] | TGI [4] | TGI [5] | TGI [6] | TGI [7] | TGI [8] | TGI [9] | TGI [10] | GI50 [1] | GI50 [10] | GI50 [2] | GI50 [3] | GI50 [4] | GI50 [5] | GI50 [6] | GI50 [7] | GI50 [9] | GI50 [8]
CN/N=C(/c1nc2ccc([N+](=O)[O-])cc2[nH]c1=O)C(O)c1ccc(C(O)/C(=N\NC)c2nc3ccc([N+](=O)[O-])cc3[nH]c2=O)cc1 (stereo not given) | > 100 µM | > 100 µM | > 100 µM | > 100 µM | > 100 µM | > 100 µM | > 100 µM | > 100 µM | > 100 µM |  |  |  |  |  |  |  |  |  |  | 
CC1CC2(S(=O)(=O)c3ccccc3)ON1CC2S(=O)(=O)c1ccccc1 (stereo not given) | > 100 µM | > 100 µM | > 100 µM | > 100 µM | > 100 µM | > 100 µM | > 100 µM | > 100 µM | > 100 µM |  |  |  |  |  |  |  |  |  |  | 
CN(C)N1C(=O)SCC(c2ccccc2)(c2ccccc2)C1=O | > 100 µM | > 100 µM | > 100 µM | > 100 µM | > 100 µM | > 100 µM | > 100 µM | > 100 µM | > 100 µM |  |  |  |  |  |  |  |  |  |  | 
CCCc1nc(Cl)nc(Cl)c1Cl | 1.43 µM | 1.3 µM | 3.15 µM | 1.56 µM | 2.77 µM | 2.04 µM | 5.66 µM |  | 6 µM | 0.0764 µM |  |  |  |  |  |  |  |  |  | 
C=C1C(=O)O[C@H]2[C@H]1CC/C(COC(=O)NCc1ccc(Cn3c(=O)sn(CCCCC)c3=O)cc1)=C\CC[C@@]1(C)O[C@@H]21 | 4.23 µM | 3.7 µM | 3.23 µM | 3.89 µM | 4.94 µM | 4.1 µM | 12.5 µM |  | 4.07 µM | 4.62 µM | 1.98 µM | 1.91 µM | 1.73 µM | 1.66 µM | 2.09 µM | 2.23 µM | 1.94 µM | 3.42 µM | 1.59 µM | 
COc1cc2c(c3c1c(=O)c1ccccc1n3C)C=CC(C)(C)O2 | > 100 µM | > 100 µM | > 100 µM | > 100 µM | > 100 µM | > 100 µM | > 100 µM | > 100 µM | > 100 µM |  |  |  |  |  |  |  |  |  |  | 
CCOc1cccc2c1N[S@@](=O)S2 | > 100 µM | > 100 µM | > 100 µM | > 100 µM | > 100 µM | > 100 µM |  | > 100 µM | > 100 µM |  |  |  |  |  |  |  |  |  |  | 
CCOc1ccc(N=C2NC(=O)C(CC(=O)Nc3ccccc3[N+](=O)[O-])S2)cc1 (stereo not given) | > 100 µM | > 100 µM | > 100 µM | > 100 µM |  | > 100 µM | > 100 µM | > 100 µM | > 100 µM |  |  |  |  |  |  |  |  |  |  | 
COc1ccc(/C=C(\NC(=O)c2ccccc2)c2nc3ccccc3[nH]2)cc1OC | > 100 µM | > 100 µM | > 100 µM | > 100 µM | > 100 µM | > 100 µM | > 100 µM | > 100 µM | > 100 µM |  |  |  |  |  |  |  |  |  |  | 
C1=Cc2nc1c(-c1ccccc1)c1ccc([nH]1)c(-c1ccccc1)c1nc(c(-c3ccccc3)c3ccc([nH]3)c2-c2ccccc2)C=C1 | > 100 µM | > 100 µM | > 100 µM | > 100 µM | > 100 µM | > 100 µM | > 100 µM | > 100 µM | > 100 µM |  |  |  |  |  |  |  |  |  |  | 
CCOC(=O)c1sc(-c2ccc(OS(=O)(=O)C[C@]34CCC(CC3=O)C4(C)C)c(C=O)c2)nc1C | 4.09 µM |  | 1.69 µM | 3.34 µM | 3.54 µM | 2.64 µM | 3.24 µM | 3.19 µM | 2.8 µM | 2.48 µM | 1.39 µM | 0.916 µM |  | 0.761 µM | 1.23 µM | 1.3 µM | 1.04 µM | 1.03 µM | 0.781 µM | 0.822 µM
COc1ccc(O)c(C(=O)CCC(=O)O)c1 | > 100 µM |  | > 100 µM | > 100 µM | > 100 µM | > 100 µM | > 100 µM | > 100 µM | > 100 µM |  |  |  |  |  |  |  |  |  |  | 
Clc1ccccc1CN1COc2c(ccc3cccnc23)C1 | 14.8 µM | 9.66 µM | 14.8 µM |  | 18.1 µM | 5.34 µM | 20.8 µM | 7.15 µM | 21.1 µM |  |  |  |  |  |  |  |  |  |  | 
C=C1C(=O)OC2C1CCC(C)C1(O)C=CC(=O)C21C (stereo not given) | > 10 µM | > 10 µM | > 10 µM | > 10 µM | > 10 µM | > 10 µM | > 10 µM | > 10 µM | > 10 µM |  |  |  |  |  |  |  |  |  |  | 
COc1ccc(Nc2nc(Nc3cc(C)[nH]n3)c3cc(OC)c(OC)cc3n2)cc1 | 3.02 µM |  | 2.45 µM |  | 2.09 µM | 2.82 µM | 2.09 µM | 0.782 µM | 3.15 µM | 2.9 µM | 1.49 µM | 1.4 µM |  | 0.685 µM |  | 0.61 µM | 1.16 µM | 0.569 µM | 1.66 µM | 0.278 µM
COC(=O)C(=O)C(CC(=O)Nc1ccc(C)cc1)C(=O)OC (stereo not given) | > 100 µM | > 100 µM | > 100 µM | > 100 µM | > 100 µM | > 100 µM | > 100 µM | > 100 µM |  |  |  |  |  |  |  |  |  |  |  | 
C/C(=C(/c1ccccc1)c1ccc(OCC(O)CNCCN2CCOCC2)cc1)c1ccccc1 (stereo not given) | 3.32 µM | 4.02 µM | 5.4 µM | 4.86 µM | 8.33 µM | 14.5 µM | 3.4 µM |  | 15.6 µM | 22.2 µM | 1.74 µM | 10.1 µM | 1.86 µM | 2.19 µM | 2.03 µM | 2.73 µM | 3.87 µM | 1.8 µM | 2.68 µM | 
C=C1C(=O)C23[C@H](O)C1CC[C@H]2[C@]12COC3(O)[C@@H](O)[C@@H]1C(C)(C)CC[C@@H]2O | 24 µM | 19.3 µM | 15.9 µM | 36.6 µM | 31.4 µM | 29.8 µM | 30.7 µM | 29.3 µM | 38.7 µM |  |  |  |  |  |  |  |  |  |  | 
CN(C)c1ccc(/C=C(\NC(=O)c2ccccc2)c2nc3ccc4c(c3[nH]2)C(=O)c2ccccc2C4=O)cc1 | > 100 µM | > 100 µM | > 100 µM | > 100 µM | > 100 µM | > 100 µM | > 100 µM | > 100 µM | 64.2 µM |  |  |  |  |  |  |  |  |  |  | 
